Experimental data reported in patent publication US20260226006A1, “INDOLE COMPOUND, PREPARATION METHOD THEREFOR AND USE THEREOF” (SUZHOU MERNA THERAPEUTICS CO. LTD, priority 2023, published 2026).

How the values were obtained:
HaCat cells = assay: m6A methylation level of human HaCat keratinocytes, EpiQuik m6A RNA methylation quantification kit (Example 20); assay type: cell-based; conditions: for abnormal increase in the RNA m6A level of human keratinocytes caused by chemotherapeutic drugs and multikinase inhibitors: 400 nM compound after 50 nM drug; for m6A fold change relative to control group 1: HaCat cells, 24 hours
Method in brief: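 HaCat keratinocytes in DMEM/10% FBS given 50 nM sorafenib, capecitabine, docetaxel or osimertinib, then 400 nM test compound or nicotinamide, and cultured 24 hours at 37° C. Total RNA m6A quantified by EpiQuik ELISA at 450 nm against a standard curve, expressed as percentage of RNA input.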

HaCaT keratinocytes = assay: Inhibition of HBEGF-induced differentiation of HaCaT keratinocytes, marker mRNA by RT-PCR (Example 21); assay type: cell-based, human; conditions: 2.5 ng/mL human recombinant HBEGF protein + test compound, 24 hours
Method in brief: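 HaCaT cells cultured 24 h at 37° C, then exposed for 24 h to 2.5 ng/mL recombinant human HBEGF with test compounds; DMSO and HBEGF-only controls. Total RNA (1 μg) reverse-transcribed; KRT1, KRT10, Loricrin and Involucrin mRNA measured by SYBR RT-PCR and agarose gel electrophoresis.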

paw plantar skin of rats = assay: Rat models with hand-foot skin reaction, topical ointment (Example 22); assay type: in vivo, SD rats; conditions: for Incidence rate: 30 days; for incidence rate of hand-foot skin reaction at a drug application site: compounds at a mass content of 1% in ointment; for incidence rate of hand-foot skin reaction in all paws of the rats: compounds at mass contents of 3% and 10% in ointment; for differentiation of keratinocytes both in vitro and in vivo: summary of Examples 21 and 22
Procedure: After adaptive feeding for one week, SD rats (with a body weight of approximately 200 g) were randomly divided into groups according to the body weight, with 12 rats in each group. Modeling drugs (including sorafenib, erlotinib, afatinib, and osimertinib) were respectively dissolved in a solution containing 5% of DMSO, 45% of PEG400, and 50% of H2O, and the modeling drugs were diluted to required concentrations and then administered once daily by gavage at doses shown in Table 3. After administration by gavage for 1 hour, 0.05 g of ointments containing different mass proportions of test compounds were evenly applied to left paws of the rats, a blank matrix ointment was applied to right paws of the rats to serve as a self-control, and no ointment was applied to the rats in a blank control group. After drug application, four limbs were continuously immobilized for 2 hours, then wiped with clean water to remove the residual drugs, removed from immobilization, and restored to free movement. The modeling drugs, the blank matrix ointment, and the ointments containing the test compounds were all administered once daily. After continuous administration for 30 days, the rats were euthanized, and paw plantar skin tissues were collected, fixed in 10% neutral formalin, […]. The ointments for the test compounds were prepared by mixing the compounds, white beeswax, white petrolatum, and light liquid paraffin in specific ratios (weight ratios of 3 ointments were respectively 1:18:58:23, 3:18:57:22, and 10:20:40:30). The blank matrix ointment was prepared by mixing white beeswax, white petrolatum, and light liquid paraffin in a specific ratio (weight ratio of 18:60:22).
Tissue staining: After dewaxing and rehydration, the paw plantar skin tissue sections of the above rats were stained in a hematoxylin solution for several minutes, cleaned, and placed in 1% acid alcohol for soaking until the sections faded to light blue-red. After cleaning with running water for 5 minutes, the sections were stained with eosin for 2-3 minutes, cleaned to remove excess dyes, dehydrated, then permeabilized by adding xylene for several minutes, and sealed and fixed with a neutral resin. The stratum corneum was observed under an optical microscope, and the thickness of the epidermal stratum corneum was measured using Dmetrix software.
Immunohistochemical staining: After dewaxing and hydration, the paw plantar skin tissue sections of the above rats were incubated with 3% H2O2 at room temperature for 30 minutes and blocked with 10% goat serum for 30 minutes after antigen retrieval. A KRT1 antibody (Abcam, ab93652) and a Loricrin antibody (Abcam, ab183646) were added dropwise, the sections were incubated overnight at 4° C., and an HRP secondary antibody (ZSGB-BIO, PV-6001) and a DAB kit (ZSG-BIO, ZLI9017) were added for color development. The sections were re-stained with hematoxylin, cleaned, and sealed and fixed with a neutral resin, and the expression amounts of KRT1 and Loricrin were observed under an optical microscope.
An incidence rate calculation method involves a proportion of animals in each group meeting the above criteria for determining successful modeling, that is, incidence rate=(number of successfully modeled rats/total number of rats in the group)*100%. […]

[1] = 50 nM capecitabine + 400 nM test compound
[2] = 50 nM docetaxel + 400 nM test compound
[3] = 50 nM osimertinib + 400 nM test compound
[4] = 50 nM sorafenib + 400 nM test compound
[5] = afatinib 50 mg/kg, 1% compound ointment on left paw, left paw
[6] = afatinib 50 mg/kg, 1% compound ointment on left paw, right paw (blank matrix ointment)
[7] = afatinib 50 mg/kg, 3% compound ointment on left paw, left paw
[8] = afatinib 50 mg/kg, 3% compound ointment on left paw, right paw (blank matrix ointment)
[9] = afatinib 50 mg/kg, 10% compound ointment on left paw, left paw
[10] = afatinib 50 mg/kg, 10% compound ointment on left paw, right paw (blank matrix ointment)
[11] = erlotinib 70 mg/kg, 1% compound ointment on left paw, left paw
[12] = erlotinib 70 mg/kg, 1% compound ointment on left paw, right paw (blank matrix ointment)
[13] = erlotinib 70 mg/kg, 3% compound ointment on left paw, left paw
[14] = erlotinib 70 mg/kg, 3% compound ointment on left paw, right paw (blank matrix ointment)
[15] = erlotinib 70 mg/kg, 10% compound ointment on left paw, left paw
[16] = erlotinib 70 mg/kg, 10% compound ointment on left paw, right paw (blank matrix ointment)
[17] = osimertinib 60 mg/kg, 1% compound ointment on left paw, left paw
[18] = osimertinib 60 mg/kg, 1% compound ointment on left paw, right paw (blank matrix ointment)
[19] = osimertinib 60 mg/kg, 3% compound ointment on left paw, left paw
[20] = osimertinib 60 mg/kg, 3% compound ointment on left paw, right paw (blank matrix ointment)
[21] = osimertinib 60 mg/kg, 10% compound ointment on left paw, left paw
[22] = osimertinib 60 mg/kg, 10% compound ointment on left paw, right paw (blank matrix ointment)
[23] = paw plantar skin of modeled rats, topical ointment
[24] = sorafenib 100 mg/kg, 1% compound ointment on left paw, left paw
[25] = sorafenib 100 mg/kg, 1% compound ointment on left paw, right paw (blank matrix ointment)
[26] = sorafenib 100 mg/kg, 3% compound ointment on left paw, left paw
[27] = sorafenib 100 mg/kg, 3% compound ointment on left paw, right paw (blank matrix ointment)
[28] = sorafenib 100 mg/kg, 10% compound ointment on left paw, left paw
[29] = sorafenib 100 mg/kg, 10% compound ointment on left paw, right paw (blank matrix ointment)

Row | Compound | abnormal increase in the RNA m6A level of human keratinocytes caused by chemotherapeutic drugs and multikinase inhibitors (HaCat cells) | m6A fold change relative to control group 1 (HaCat cells; [1]) | m6A fold change relative to control group 1 (HaCat cells; [2]) | m6A fold change relative to control group 1 (HaCat cells; [3]) | m6A fold change relative to control group 1 (HaCat cells; [4]) | mRNA expression amounts of HaCaT differentiation markers KRT1, KRT10, Loricrin, and Involucrin (HaCaT keratinocytes) | Incidence rate (paw plantar skin of rats; [5]) | Incidence rate (paw plantar skin of rats; [6]) | Incidence rate (paw plantar skin of rats; [7]) | Incidence rate (paw plantar skin of rats; [8]) | Incidence rate (paw plantar skin of rats; [9]) | Incidence rate (paw plantar skin of rats; [10]) | incidence rate of hand-foot skin reaction at a drug application site (paw plantar skin of rats) | incidence rate of hand-foot skin reaction in all paws of the rats (paw plantar skin of rats) | Incidence rate (paw plantar skin of rats; [11]) | Incidence rate (paw plantar skin of rats; [12]) | Incidence rate (paw plantar skin of rats; [13]) | Incidence rate (paw plantar skin of rats; [14]) | Incidence rate (paw plantar skin of rats; [15]) | Incidence rate (paw plantar skin of rats; [16]) | also measured
1 | NC(=O)C1c2[nH]c3ccc(Cl)cc3c2C2CCC1C2 [Compound 5a, (S)-2-chloro-5,6,7,8,9,10-hexahydro-7,10-methanocyclohepta[b]indole-6-carboxamide] | effectively inhibit | 1.2 | 1.0 | 1.2 | 1.0 | significantly inhibited | 1/12 (8%) | 9/12 (75%) | 1/12 (8%) | 4/12 (33%) | 0/12 (0%) | 1/12 (8%) | significantly decrease | significantly decrease | 2/12 (17%) | 9/12 (75%) | 2/12 (17%) | 5/12 (42%) | 0/12 (0%) | 0/12 (0%) | Incidence rate (paw plantar skin of rats; [17]): 2/12 (17%); Incidence rate (paw plantar skin of rats; [18]): 9/12 (75%); Incidence rate (paw plantar skin of rats; [19]): 1/12 (8%); Incidence rate (paw plantar skin of rats; [20]): 4/12 (33%); Incidence rate (paw plantar skin of rats; [21]): 0/12 (0%); Incidence rate (paw plantar skin of rats; [22]): 1/12 (8%); formation of blisters, inflammatory cell infiltration in the dermis and skin congestion (pathological scoring) (paw plantar skin of rats; [23]): effectively improve; formation of blisters, inflammatory cell infiltration in the dermis and skin congestion (tissue staining) (paw plantar skin of rats; [23]): effectively improve; Incidence rate (paw plantar skin of rats; [24]): 1/12 (8%); Incidence rate (paw plantar skin of rats; [25]): 10/12 (83%); Incidence rate (paw plantar skin of rats; [26]): 1/12 (8%); Incidence rate (paw plantar skin of rats; [27]): 5/12 (42%); Incidence rate (paw plantar skin of rats; [28]): 0/12 (0%); Incidence rate (paw plantar skin of rats; [29]): 2/12 (17%; differentiation of keratinocytes both in vitro and in vivo (paw plantar skin of rats): effectively inhibit; stratum corneum thickness of the paw plantar skin of the modeled rats (paw plantar skin of rats; topical ointment): effectively decrease
2 | CN1CC[C@H](C(N)=O)c2[nH]c3ccc(Cl)cc3c21 [Compound 8b, (S)-8-chloro-1-methyl-2,3,4,5-tetrahydropyrido[3,2-b]indole-4-carboxamide] | effectively inhibit | 1.0 | 1.2 | 1.0 | 1.0 | significantly inhibited | 1/12 (8%) | 9/12 (75%) | 1/12 (8%) | 4/12 (33%) | 0/12 (0%) | 1/12 (8%) | significantly decrease | significantly decrease | 2/12 (17%) | 10/12 (83%) | 1/12 (8%) | 4/12 (33%) | 0/12 (0%) | 0/12 (0%) | Incidence rate (paw plantar skin of rats; [17]): 1/12 (8%); Incidence rate (paw plantar skin of rats; [18]): 9/12 (75%); Incidence rate (paw plantar skin of rats; [19]): 1/12 (8%); Incidence rate (paw plantar skin of rats; [20]): 3/12 (25%); Incidence rate (paw plantar skin of rats; [21]): 0/12 (0%); Incidence rate (paw plantar skin of rats; [22]): 0/12 (0%); formation of blisters, inflammatory cell infiltration in the dermis and skin congestion (pathological scoring) (paw plantar skin of rats; [23]): effectively improve; Incidence rate (paw plantar skin of rats; [24]): 1/12 (8%); Incidence rate (paw plantar skin of rats; [25]): 8/12 (67%); Incidence rate (paw plantar skin of rats; [26]): 1/12 (8%); Incidence rate (paw plantar skin of rats; [27]): 3/12 (25%); Incidence rate (paw plantar skin of rats; [28]): 0/12 (0%); Incidence rate (paw plantar skin of rats; [29]): 1/12 (8%); differentiation of keratinocytes both in vitro and in vivo (paw plantar skin of rats): effectively inhibit; stratum corneum thickness of the paw plantar skin of the modeled rats (paw plantar skin of rats; topical ointment): effectively decrease
3 | NC(=O)C1CCCc2c1[nH]c1ccc(Cl)cc21 (stereo not drawn) [Compound 2, 6-chloro-2,3,4,9-tetrahydro-1H-carbazole-1-carboxamide] | effectively inhibit | 2.3 | 3.3 | 2.2 | 2.4 | significantly inhibited | 2/12 (17%) | 7/12 (58%) | 2/12 (17%) | 5/12 (42%) | 1/12 (8%) | 5/12 (42%) | significantly decrease | significantly decrease | 3/12 (25%) | 10/12 (83%) | 2/12 (17%) | 4/12 (33%) | 1/12 (8%) | 4/12 (33%) | Incidence rate (paw plantar skin of rats; [17]): 2/12 (17%); Incidence rate (paw plantar skin of rats; [18]): 9/12 (75%); Incidence rate (paw plantar skin of rats; [20]): 4/12 (33%); Incidence rate (paw plantar skin of rats; [21]): 0/12 (0%); Incidence rate (paw plantar skin of rats; [22]): 3/12 (25%); formation of blisters, inflammatory cell infiltration in the dermis and skin congestion (pathological scoring) (paw plantar skin of rats; [23]): effectively improve; Incidence rate (paw plantar skin of rats; [24]): 3/12 (25%); Incidence rate (paw plantar skin of rats; [25]): 8/12 (67%); Incidence rate (paw plantar skin of rats; [26]): 1/12 (8%); Incidence rate (paw plantar skin of rats; [27]): 5/12 (42%); Incidence rate (paw plantar skin of rats; [28]): 0/12 (0%); Incidence rate (paw plantar skin of rats; [29]): 5/12 (42%); differentiation of keratinocytes both in vitro and in vivo (paw plantar skin of rats): effectively inhibit; stratum corneum thickness of the paw plantar skin of the modeled rats (paw plantar skin of rats; topical ointment): effectively decrease
